Measurements reported in US6586470B1, “Insecticidal composition” (Ecoval INC, priority 1998, dated 2003).

Tested on: Northern corn root worm adults (diabrotica longiscornis)
Assay: Spray test on Northern corn root worm adults
Type: in vivo
Details: insects sprayed, inspected after 24 hours, amounts in grams/litre
Protocol: The insecticidal compositions being tested were formulated in aqueous solution. The amounts of the ingredients are specified in the examples, and unless stated otherwise, are expressed in grams/litre. The compositions were tested on Northern corn root worm adults (diabrotica longiscornis). The insects were treated and tested as indicated above.

| Compound | % Control | Alive | Dead | % Control (listed as acetic acid at 50 g/l) | % Control (listed as citric acid at 25 g/l) |
| --- | --- | --- | --- | --- | --- |
| CC(=O)O [Sample 1, acetic acid] | 0% | 10 | 0 |  |  |
| O=C(O)CC(O)(CC(=O)O)C(=O)O [Sample 2, citric acid] | 0% | 10 | 0 |  |  |
| CC(=O)O [Sample 15, acetic acid] | 0% | 10 | 0 |  |  |
| CC(=O)O [Sample 18, acetic acid] | 30% | 7 | 3 | partial control |  |
| O=C(O)CC(O)(CC(=O)O)C(=O)O [Sample 19, citric acid] | 20% | 8 | 2 |  | partial control |
